Laboratory results: patent publication US20110295006A1, “CYCLIC DIPEPTIDES AS FEED ADDITIVES” (EVONIK DEGUSSA GMBH, priority 2010, published 2011)

What was measured:
[1] = Solubility (water, pH, bile/water mixtures); format: physicochemical
[2] = Pelletizing and extrusion stability in feed production; format: physicochemical
[3] = Leaching behavior from feed in water; format: physicochemical
[4] = test system: digestive enzymes from rainbow trout; assay: In vitro digestion tests with digestive enzymes from rainbow trout; format: in vitro ADME, Oncorhynchus mykiss; conditions: pH 9
Description: (§1) The diketopiperazines were digested in vitro with digestive enzymes from carnivorous rainbow trout and omnivorous mirror carp. For this, the enzymes were removed from the digestive tracts of fishes and shrimps. The enzyme solutions obtained were then added to the diketopiperazines. For better comparability of the digestibility of dipeptides of various species, identical conditions were selected for the in vitro digestion studies (37° C., pH 9).
a) Isolation of the Digestive Enzymes from Rainbow Trout (Oncorhynchus mykiss)
The digestive enzymes were isolated based on the method of EID and MATTY (Aquaculture 1989, 79, 111-119). For this, the intestine was removed from five one-year-old rainbow trout (Oncorhynchus mykiss) and processed as described in Example 11. 56 ml of enzyme solution of the intestinal mucosa was obtained from 5 rainbow trout. The solution was stored in the dark at 4° C.
The in vitro studies were carried out as in Example 11. The conversion was determined as the quotient of the content of methionine or methionylmethionine (Met-Met) and the content of cyclo-Met-Met (see FIG. 3).
The test from Example 12b) was carried out similarly, with the cyclic dipeptides cyclo-D-Met-L-Phe and cyclo-D-Met-L-Lys (see FIGS. 7 and 8).

[5] = Blank without enzyme solution (purely chemical cleavage rate); format: physicochemical; conditions: no enzyme solution
Description: DD/LL-cyclo-Met-Met was taken up in TRIS/HCl buffer solution and the enzyme solution was added to it. As comparison and for assessing the purely chemical cleavage rate, in each case a blank was prepared without enzyme solution (see Table 1). A sample was taken from time to time and its composition was detected and quantified using a calibrated HPLC. The conversion was determined as the quotient of the content of methionine or methionylmethionine (Met-Met) and the content of DD/LL-cyclo-Met-Met (see FIG. 4). […] [table] The in vitro studies were carried out as in Example 11. The conversion was determined as the quotient of the content of methionine or methionylmethionine (Met-Met) and the content of cyclo-Met-Met (see FIG. 3). […] [table] The in vitro studies were carried out as in Example 11. The conversion was determined as the quotient of the content of methionine or D-Met-L-Thr and the content of cyclo-D-Met-L-Thr (see FIG. 9). […] [table]

Litopenaeus vannamei = conditions: feeding tests; Forster and Dominy 2006; cited from earlier work
[6] = test system: digestive enzymes from mirror carp; assay: In vitro digestion tests with digestive enzymes from mirror carp; format: in vitro ADME, Cyprinus carpio morpha noblis; conditions: pH 9
Description: as §1
a) Isolation of the Digestive Enzymes from Mirror Carp (Cyprinus carpio morpha noblis)
The digestive enzymes were isolated based on the method of EID and MATTY (Aquaculture 1989, 79, 111-119). For this, the intestine was removed from six one-year-old mirror carp (Cyprinus carpio morpha noblis), rinsed with water, cut open lengthwise and in each case the intestinal mucosa was scraped off. This was comminuted, together with crushed ice, in a mixer. The resultant suspension was treated with an ultrasonic rod, to disrupt any cells that were still intact. In order to separate the cell constituents and fat, the suspension was centrifuged for 30 minutes at 4° C., the homogenate was decanted off and sterilized with a trace of thimerosal. 49 ml of enzyme solution of the intestinal mucosa was obtained from 6 mirror carp. The solution was stored at 4° C. in the dark.
DD/LL-cyclo-Met-Met was taken up in TRIS/HCl buffer solution and the enzyme solution was added to it. As comparison and for assessing the purely chemical cleavage rate, in each case a blank was prepared without enzyme solution (see Table 1). A sample was taken from time to time and its composition was detected and quantified using a calibrated HPLC. The conversion was determined as the quotient of the content of methionine or methionylmethionine (Met-Met) and the content of DD/LL-cyclo-Met-Met (see FIG. 4).
The test from Example 11b) was carried out similarly, with the cyclic dipeptides cyclo-L-His-L-His and cyclo-D-Met-L-Leu (see FIGS. 5 and 6).

ruminants = conditions: disclosed in WO00/28835; cited from earlier work
chicken = conditions: Baker et al. 1982; cited from earlier work

## CSCCC1NC(=O)C(CCSC)NC1=O (racemic) [DD/LL/meso-cyclo-Met-Met, 3,6-bis[2-(methylthio)ethyl]-2,5-piperazinedione]
[1]
  solubility: low solubility
[2]
  pelletizing and extrusion stability: good pelletizing and extrusion stability
[3]
  leaching behavior: particularly good leaching behavior
[4]; in vitro, 37° C.
  enzymatic cleavage by digestive enzymes of rainbow trout: can be cleaved
[5]; TRIS/HCl buffer pH 9.5, 37° C.
  conversion in the blank to dipeptide DD/LL/meso-Met-Met or DL-methionine: hardly any conversion

## CSCCC(N)C(=O)O (racemic) [DL-methionine]
Litopenaeus vannamei
  efficacy relative to L-methionine: same efficacy as L-methionine

## CSCCC1NC(=O)C(CCSC)NC1=O (centres unmarked) [DD/LL-cyclo-Met-Met, 3,6-bis[2-(methylthio)ethyl]-2,5-piperazinedione]
[6]; in vitro, 37° C.
  enzymatic cleavage by digestive enzymes of mirror carp: can be cleaved
[5]; TRIS/HCl buffer pH 9.5, bile, 37° C.
  reaction in the blank to dipeptide DD/LL-Met-Met or DL-methionine: hardly any reaction

## CSCCC(O)C(=O)OC(C)C (centres unmarked) [HMBi]
ruminants
  biological value: at least 50%

## CSCC[C@H]1NC(=O)[C@@H](CCSC)NC1=O [cyclo-D-Met-D-Met]
[4]; in vitro, 37° C.
  enzymatic cleavage by digestive enzymes of rainbow trout: can be cleaved
[6]; in vitro, 37° C.
  enzymatic cleavage by digestive enzymes of mirror carp: can be cleaved

## CSCC[C@@H]1NC(=O)[C@@H](CCSC)NC1=O [cyclo-D-Met-L-Met]
[4]; in vitro, 37° C.
  enzymatic cleavage by digestive enzymes of rainbow trout: can be cleaved
[6]; in vitro, 37° C.
  enzymatic cleavage by digestive enzymes of mirror carp: can be cleaved

## CSCC[C@H]1NC(=O)[C@H]([C@@H](C)O)NC1=O [cyclo-D-Met-L-Thr, 3-(R)-[2-(methylthio)ethyl]-6-(S)-(1-(R)-hydroxyethyl)-2,5-piperazinedione]
[5]; TRIS/HCl buffer pH 9.5, 37° C.
  conversion in the blank to dipeptide D-Met-L-Thr or free amino acids: hardly any conversion

## CSCC[C@@H]1NC(=O)[C@H](CCSC)NC1=O [cyclo-L-Met-L-Met]
[4]
  enzymatic cleavage by digestive enzymes of rainbow trout: can be cleaved
[6]
  enzymatic cleavage by digestive enzymes of mirror carp: can be cleaved

## poly-L-methionine
chicken
  biological value: no biological value
